Among the data in patent US20100272680A1, “Piperidinyl Cyclic Amido Antiviral Agents” (priority 2009, published 2010) are EC50 values, retold here.

One assay concerns HCV Genotype 1A Replicon. Put plainly: Replicon assay, genotype 1a subgenomic replicon, luciferase readout. The note with it: Hepatitis C virus, 48 h, Table 3; luciferase activity after 48 hours. The format is cell-based. An outline of the steps: (§1)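 Stable luciferase replicon cells (1b: ET line with adaptive mutations; 1a: Apath-derived) plated at 0.5×10^4 cells/well with compound (final 0.03–50 μM, 0.5–1% DMSO). Luciferase read after 48 h; EC50 from 10-point, 3–4-fold dilution curves by four-parameter logistic fit, normalized to no-compound and no-cell controls.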
On the technique in general: In antiviral work, replicon cells carry a viral genome segment that copies itself.

In the next assay the test system is HCV Genotype 1B Replicon. Put plainly: Replicon assay, genotype 1b subgenomic replicon (ET cell line), luciferase readout. The format is cell-based. The note with it: Hepatitis C virus, 48 h, Table 3; luciferase activity after 48 hours. The method, boiled down: as §1

Take `O=C(c1nc2c(C(F)(F)F)cc(C3CC3)cn2c1Cl)N1CCC(N2CCOC2=O)CC1` [Compound 156, 3-(1-{[3-chloro-6-cyclopropyl-8-(trifluoromethyl)imidazo[1,2-a]pyridin-2-yl]carbonyl}-4-piperidinyl)-1,3-oxazolidin-2-one]: the EC50 in the assay with HCV Genotype 1A Replicon and with HCV Genotype 1B Replicon was 10 nM each time.
Regarding `O=C(c1nc2c(C(F)(F)F)cc(C(F)F)cn2c1Cl)N1CCC(N2CCOC2=O)CC1` [Compound 157, 3-(1-{[3-chloro-6-(difluoromethyl)-8-(trifluoromethyl)imidazo[1,2-a]pyridin-2-yl]carbonyl}-4-piperidinyl)-1,3-oxazolidin-2-one], the EC50 with HCV Genotype 1A Replicon is 20 nM; in the assay with HCV Genotype 1B Replicon, 150 nM.
Taken in the same sequence, the figures for `O=C(c1nc2c(C(F)(F)F)cc(-c3ccoc3)cn2c1Br)N1CCC(N2CCOC2=O)CC1` [Compound 158, 3-(1-{[3-bromo-6-(3-furanyl)-8-(trifluoromethyl)imidazo[1,2-a]pyridin-2-yl]carbonyl}-4-piperidinyl)-1,3-oxazolidin-2-one] were 10 nM and 40 nM.
On the same counts, the results for `O=C(c1nc2c(C(F)(F)F)cc(-c3ccoc3)cn2c1Br)N1CCC(N2C(=O)COC2=O)CC1` [Compound 159, 3-(1-{[3-bromo-6-(3-furanyl)-8-(trifluoromethyl)imidazo[1,2-a]pyridin-2-yl]carbonyl}-4-piperidinyl)-1,3-oxazolidine-2,4-dione] are 30 nM and 30 nM.
On the same counts, the results for `N#Cc1c(C(=O)N2CCC(N3CCOC3=O)CC2)nc2c(C(F)(F)F)cc(-c3ccoc3)cn12` [Compound 160, 6-(3-furanyl)-2-{[4-(2-oxo-1,3-oxazolidin-3-yl)-1-piperidinyl]carbonyl}-8-(trifluoromethyl)imidazo[1,2-a]pyridine-3-carbonitrile] are 10 nM and 10 nM.
Take `N#Cc1c(C(=O)N2CCC(N3C(=O)COC3=O)CC2)nc2c(C(F)(F)F)cc(-c3ccoc3)cn12` [Compound 161, 2-{[4-(2,4-dioxo-1,3-oxazolidin-3-yl)-1-piperidinyl]carbonyl}-6-(3-furanyl)-8-(trifluoromethyl)imidazo[1,2-a]pyridine-3-carbonitrile]: the EC50 with HCV Genotype 1A Replicon and with HCV Genotype 1B Replicon was 30 nM each time.
As to `N#Cc1c(C(=O)N2CCC(N3CCOC3=O)CC2)nc2c(C(F)(F)F)cc(C3CC3)cn12` [Compound 162, 6-cyclopropyl-2-{[4-(2-oxo-1,3-oxazolidin-3-yl)-1-piperidinyl]carbonyl}-8-(trifluoromethyl)imidazo[1,2-a]pyridine-3-carbonitrile], the EC50 with HCV Genotype 1A Replicon and in the assay with HCV Genotype 1B Replicon was 10 nM throughout.
Turning to `O=C(c1nc2c(C(F)(F)F)cc(C3CC3)cn2c1Cl)N1CCC(N2CC(O)CC2=O)CC1` (centres unmarked) [Compound 163, 1-(1-{[3-chloro-6-cyclopropyl-8-(trifluoromethyl)imidazo[1,2-a]pyridin-2-yl]carbonyl}-4-piperidinyl)-4-hydroxy-2-pyrrolidinone], the EC50 in the assay with HCV Genotype 1A Replicon was 380 nM; with HCV Genotype 1B Replicon, 80 nM.
Taken in the same sequence, the figures for `Cc1c(C(=O)N2CCC(N3CCOC3=O)CC2)nc2c(C(F)(F)F)cc(-c3ccoc3)cn12` [Compound 164, 3-(1-{[6-(3-furanyl)-3-methyl-8-(trifluoromethyl)imidazo[1,2-a]pyridin-2-yl]carbonyl}-4-piperidinyl)-1,3-oxazolidin-2-one] were 30 nM and 100 nM.
Regarding `CC(C)c1c(C(=O)N2CCC(N3CCOC3=O)CC2)nc2c(C(F)(F)F)cc(-c3ccoc3)cn12` [Compound 165, 3-(1-{[6-(3-furanyl)-3-(1-methylethyl)-8-(trifluoromethyl)imidazo[1,2-a]pyridin-2-yl]carbonyl}-4-piperidinyl)-1,3-oxazolidin-2-one], the EC50 in the assay with HCV Genotype 1A Replicon and in the assay with HCV Genotype 1B Replicon was not below 5010 nM in each case.
With `O=C(c1nc2c(C(F)(F)F)cc(-c3ccoc3)cn2c1CO)N1CCC(N2CCOC2=O)CC1` [Compound 166, 3-(1-{[6-(3-furanyl)-3-(hydroxymethyl)-8-(trifluoromethyl)imidazo[1,2-a]pyridin-2-yl]carbonyl}-4-piperidinyl)-1,3-oxazolidin-2-one], the figures for the EC50 in the assay with HCV Genotype 1A Replicon and with HCV Genotype 1B Replicon were 920 nM and 2000 nM, respectively.
Take `O=C(c1nc2c(C(F)(F)F)cc(-c3cn[nH]c3)cn2c1Cl)N1CCC(N2C(=O)CCC2=O)CC1` [Compound 167, 1-(1-{[3-chloro-6-(1H-pyrazol-4-yl)-8-(trifluoromethyl)imidazo[1,2-a]pyridin-2-yl]carbonyl}-4-piperidinyl)-2,5-pyrrolidinedione]: the EC50 with HCV Genotype 1A Replicon amounted to 630 nM; in the assay with HCV Genotype 1B Replicon, 520 nM.
In the case of `O=C(c1nc2c(C(F)(F)F)cc(-c3ccoc3)cn2c1Cl)N1CCC(N2C(=O)CCC2=O)CC1` [Compound 168, 1-(1-{[3-chloro-6-(3-furanyl)-8-(trifluoromethyl)imidazo[1,2-a]pyridin-2-yl]carbonyl}-4-piperidinyl)-2,5-pyrrolidinedione], the EC50 came to 100 nM with HCV Genotype 1A Replicon and 70 nM in the assay on HCV Genotype 1B Replicon.
On the same counts, the results for `O=C(c1nc2c(C(F)(F)F)cc(-c3ccoc3)cn2c1Cl)N1CCC(N2CCNC2=O)CC1` [Compound 169, 1-(1-{[3-chloro-6-(3-furanyl)-8-(trifluoromethyl)imidazo[1,2-a]pyridin-2-yl]carbonyl}-4-piperidinyl)-2-imidazolidinone] are 1880 nM and 160 nM.
Taken in the same sequence, the figures for `O=C(c1nc2c(C(F)(F)F)cc(-c3cn[nH]c3)cn2c1Cl)N1CCC(N2CCNC2=O)CC1` [Compound 170, 1-(1-{[3-chloro-6-(1H-pyrazol-4-yl)-8-(trifluoromethyl)imidazo[1,2-a]pyridin-2-yl]carbonyl}-4-piperidinyl)-2-imidazolidinone] were 8810 nM and 1320 nM.
On to `O=C1CN(C2CCN(C(=O)c3nc4c(C(F)(F)F)cc(-c5ccoc5)cn4c3Cl)CC2)C(=O)N1` [Compound 171, 1-(1-{[3-chloro-6-(3-furanyl)-8-(trifluoromethyl)imidazo[1,2-a]pyridin-2-yl]carbonyl}-4-piperidinyl)-2,4-imidazolidinedione], for which the values for the EC50 in the assay with HCV Genotype 1A Replicon and with HCV Genotype 1B Replicon were 810 nM and 580 nM, respectively.
In the case of `O=C1CN(C2CCN(C(=O)c3nc4c(C(F)(F)F)cc(-c5cn[nH]c5)cn4c3Cl)CC2)C(=O)N1` [Compound 172, 1-(1-{[3-chloro-6-(1H-pyrazol-4-yl)-8-(trifluoromethyl)imidazo[1,2-a]pyridin-2-yl]carbonyl}-4-piperidinyl)-2,4-imidazolidinedione], the values for the EC50 with HCV Genotype 1A Replicon and in the assay on HCV Genotype 1B Replicon were 3210 nM and 3760 nM, respectively.
Taken in the same sequence, the figures for `CN1CCN(C2CCN(C(=O)c3nc4c(C(F)(F)F)cc(-c5ccoc5)cn4c3Cl)CC2)C1=O` [Compound 173, 1-(1-{[3-chloro-6-(3-furanyl)-8-(trifluoromethyl)imidazo[1,2-a]pyridin-2-yl]carbonyl}-4-piperidinyl)-3-methyl-2-imidazolidinone] were 750 nM and 480 nM.
For the molecule `O=C(c1nc2c(C(F)(F)F)cc(-c3cn[nH]c3)cn2c1Cl)N1CCC(N2C(=O)CNC2=O)CC1` [Compound 174, 3-(1-{[3-chloro-6-(1H-pyrazol-4-yl)-8-(trifluoromethyl)imidazo[1,2-a]pyridin-2-yl]carbonyl}-4-piperidinyl)-2,4-imidazolidinedione], the EC50 with HCV Genotype 1A Replicon was found to be 25100 nM; with HCV Genotype 1B Replicon, 2290 nM.
Taken in the same sequence, the figures for `O=C(c1nc2c(C(F)(F)F)cc(-c3ccoc3)cn2c1Cl)N1CCC(N2C(=O)CNC2=O)CC1` [Compound 175, 3-(1-{[3-chloro-6-(3-furanyl)-8-(trifluoromethyl)imidazo[1,2-a]pyridin-2-yl]carbonyl}-4-piperidinyl)-2,4-imidazolidinedione] were 2570 nM and 140 nM.
On the same counts, the results for `CC1(C)COC(=O)N1C1CCN(C(=O)c2nc3c(C(F)(F)F)cc(-c4ccoc4)cn3c2Cl)CC1` [Compound 176, 3-(1-{[3-chloro-6-(3-furanyl)-8-(trifluoromethyl)imidazo[1,2-a]pyridin-2-yl]carbonyl}-4-piperidinyl)-4,4-dimethyl-1,3-oxazolidin-2-one] are not below 50100 nM and not below 50100 nM.
Taken in the same sequence, the figures for `CC1(C)COC(=O)N1C1CCN(C(=O)c2nc3c(C(F)(F)F)cc(-c4cn[nH]c4)cn3c2Cl)CC1` [Compound 177, 3-(1-{[3-chloro-6-(1H-pyrazol-4-yl)-8-(trifluoromethyl)imidazo[1,2-a]pyridin-2-yl]carbonyl}-4-piperidinyl)-4,4-dimethyl-1,3-oxazolidin-2-one] were not below 50100 nM and not below 50100 nM.
As for `O=C(c1nc2c(C(F)(F)F)cc(-c3ccoc3)cn2c1Cl)N1CCC(N2C(=O)COC2=O)CC1` [Compound 178, 3-(1-{[3-chloro-6-(3-furanyl)-8-(trifluoromethyl)imidazo[1,2-a]pyridin-2-yl]carbonyl}-4-piperidinyl)-1,3-oxazolidine-2,4-dione], the EC50 in the assay with HCV Genotype 1A Replicon worked out at 20 nM; in the assay with HCV Genotype 1B Replicon, 30 nM.
On the same counts, the results for `O=C(c1nc2c(C(F)(F)F)cc(-c3cn[nH]c3)cn2c1Cl)N1CCC(N2C(=O)COC2=O)CC1` [Compound 179, 3-(1-{[3-chloro-6-(1H-pyrazol-4-yl)-8-(trifluoromethyl)imidazo[1,2-a]pyridin-2-yl]carbonyl}-4-piperidinyl)-1,3-oxazolidine-2,4-dione] are 60 nM and 360 nM.
On the same counts, the results for `C[C@H]1COC(=O)N1C1CCN(C(=O)c2nc3c(C(F)(F)F)cc(-c4ccoc4)cn3c2Cl)CC1` [Compound 180, (4S)-3-(1-{[3-chloro-6-(3-furanyl)-8-(trifluoromethyl)imidazo[1,2-a]pyridin-2-yl]carbonyl}-4-piperidinyl)-4-methyl-1,3-oxazolidin-2-one] are 1620 nM and 2850 nM.

By EC50 is commonly meant the concentration at which the effect is half-maximal. Read a high EC50 as lower potency in that assay.
